According to article PMC5762535, “Novel indazole-based small compounds enhance TRAIL-induced apoptosis by inhibiting the MKK7-TIPRL interaction in hepatocellular carcinoma” (Oncotarget, 2017):
Like-named read-outs stand apart in the source and are kept apart here.

Key:
[1] = Pharmacokinetics in rats; assay type: in vivo, Sprague-Dawley rats; conditions: rat; for AUC: male, Sprague-Dawley, plasma, after 24 h
Protocol: Male Sprague-Dawley rats anesthetized with ketamine were cannulated with polyethylene tubing in the femoral vein. A solution of lead compound (TRT-0029 or TRT-0173) was prepared by dissolving the compounds in a mixture of dimethyl sulfoxide (DMSO)/ polyethylene glycol 400 (PEG 400)/ distilled water (0.5: 4: 5.5), and was administered to rats by a bolus injection in the femoral vein. Blood samples were collected via the femoral vein 0, 2, 10, and 30 min, as well as 1, 2, 4, 6, 8, and 24 h after intravenous administration. For oral administration, blood was collected 0.25, 0.5, 1, 2, 4, 6, 8, and 24 h after treatment. The plasma fractions were prepared by centrifugation and were stored at −70°C before the liquid chromatography-tandem mass spectrometry (LC/MS/MS) analysis. The concentrations of target compound in the plasma were measured using LC-MS/MS (4000 QTRAP, AB SCIEX, Foster City, CA) in multiple reaction monitoring (MRM) mode. The PK parameters were determined with non-compartmental methods using Phoenix WinNolin (Pharsight, Mountain View, CA). The area under the plasma concentration-time curve (AUC) was calculated using the trapezoidal rule extrapolated to infinity. The terminal elimination half-life (t1/2), and the systemic clearance (CL) were obtained. The peak plasma concentration (Cmax) after oral administration was obtained by visual inspection of the plasma concentration-time plot of each rat.

[2] = test system: HepG2 cells; test: MTT cell viability assay, HepG2 cells; assay type: cell-based, human; conditions: 10 µM TRT-0029 or 20 µM TRT-0173 plus TRAIL 100 ng/ml, 24 h
Protocol: (§1) Cell viability was assessed using a 3-(4,5-dimethylthiazol-2-yl)-2,5-diphenyltetrazolium bromide (MTT, Sigma-Aldrich, St. Louis, USA) assay. The cells were seeded at a density of 1 × 10^4 cells per well and treated with the lead compounds and/or TRAIL. After 24 or 48 h, MTT (2 mg/ml) was added to each well, and the absorbance was measured using a microplate reader (Bio-Rad, Hercules, USA) at 570 nm. The cell viability was calculated as the percentage of viable cells in the drug-treated group versus the untreated control using the following equation: cell viability (%) = [OD (drug)-OD (blank)]/[OD (control)-OD (blank)] × 100.

[3] = test system: caspase-3; test: Caspase 3 activity assay in Huh7 cells; assay type: cell-based, human; conditions: for Caspase 3 activity Compound + TRAIL/Compound: each compound at its working concentration and time of the table
Protocol: The caspase 3 activity was measured using a caspase-3 luminescent assay kit (Promega, Madison, WI, USA), according to the manufacturer's instructions, and a luminescence plate reader (Molecular Devices Co., Sunnyvale, USA).

[4] = test system: Huh7 cells; test: MTT cell viability assay, Huh7 cells; assay type: cell-based, human; conditions: for effect on cell viability / cell death of Huh7 cells in the presence of TRAIL: MTT, co-treatment with TRAIL
Protocol: as §1

[5] = MTT cell viability assay, Huh7 cells; assay type: cell-based, human; conditions: human, Huh7 cells, without TRAIL; for viability: MTT, Supplementary Table 2, read-out: Cell viability assay (%) Compound only
Protocol: as §1

[6] = biological target: T1, MKK7-TIPRL interaction (Homo sapiens, UniProt O14733+O75663); test: GST pull-down assay of MKK7-TIPRL in 293T cells; assay type: cell-based; conditions: 10 μM TRT-0029 or 20 μM TRT-0173, 24 h
T1 sequence (O14733 1-419): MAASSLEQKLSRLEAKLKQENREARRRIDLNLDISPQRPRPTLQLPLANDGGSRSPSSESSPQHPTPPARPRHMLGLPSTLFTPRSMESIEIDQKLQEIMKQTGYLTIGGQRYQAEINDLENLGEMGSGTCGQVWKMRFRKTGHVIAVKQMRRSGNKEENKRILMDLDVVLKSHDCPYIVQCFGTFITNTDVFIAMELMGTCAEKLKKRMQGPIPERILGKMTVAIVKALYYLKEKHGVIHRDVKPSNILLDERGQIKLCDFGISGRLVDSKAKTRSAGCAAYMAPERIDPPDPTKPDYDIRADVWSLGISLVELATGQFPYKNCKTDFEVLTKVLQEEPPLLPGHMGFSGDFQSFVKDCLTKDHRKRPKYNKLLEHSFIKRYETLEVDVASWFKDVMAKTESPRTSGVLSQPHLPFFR
T1 sequence (O75663 1-272): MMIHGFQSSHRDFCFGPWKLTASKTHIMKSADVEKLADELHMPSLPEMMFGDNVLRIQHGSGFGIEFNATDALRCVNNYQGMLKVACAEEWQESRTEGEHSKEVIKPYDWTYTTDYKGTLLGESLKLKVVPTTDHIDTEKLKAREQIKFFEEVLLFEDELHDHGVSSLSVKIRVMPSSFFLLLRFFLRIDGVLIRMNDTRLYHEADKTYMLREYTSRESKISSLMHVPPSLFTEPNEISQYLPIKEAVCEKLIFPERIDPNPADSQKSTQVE
Protocol: The full-length cDNAs of human TIPRL and MKK7 were subcloned into the pCGN vector (W. Herr, Cold Spring Harbor Laboratory) and the pEBG vector containing a GST tag to construct the HA-tagged and the GST-tagged plasmids, respectively. 293T cells were transfected with expression vector constructs using the TurboFect Transfection Reagent (Thermo Fisher Scientific, Lafayette, USA) and then were lysed in RIPA buffer (50 mM Tris-HCl, 150 mM NaCl, 1% Triton™ X-100, 0.1% SDS, 1 mM EDTA, 1 mM Na3VO4, and 1 mM NaF) containing complete protease inhibitor cocktail (Roche Applied Science, Indianapolis, USA). Whole-cell extracts were incubated with Glutathione Sepharose 4B (GE Healthcare, Uppsala, Sweden), and the eluted GST-tagged proteins were subjected to Western blotting using the indicated antibodies.

[7] = test system: caspase-3 and PARP; test: Western blot of cleaved caspase-3 and PARP in Huh7 cells; assay type: cell-based, human; conditions: lead compounds co-treated with TRAIL 100 ng/ml, TRAIL tested alone
Protocol: The cells were lysed in lysis buffer (50 mM Tris-HCl, pH 7.4, 150 mM NaCl, 1% Triton™ X-100, 0.1% SDS, 1 mM EDTA, 1 mM Na3VO4, 1 mM NaF, and protease inhibitor cocktail) and clarified by centrifugation at 14,000×g for 20 min at 4°C. The protein samples were then subjected to Western blotting with the indicated antibodies.

[8] = test system: Huh7 tumor xenografts; test: In vivo Huh7 xenograft assay; parameters: species or system BALB/c nude mice
Source text: Five-week-old female BALB/c nude mice were purchased from SLC Japan and were maintained in accordance with the guidelines of the Institutional Review Committee for Animal Care and Use of the Korea Research Institute of Bioscience and Biotechnology. Protocol approval was obtained from the same committee.
Huh7 cells were harvested and subcutaneously injected (5 × 10^6 cells/mouse) into nude mice (N = 6/group for TRT-0173 or TRT-0029 experiments). When the tumor volume reached ~100 mm^3, the mice were divided into four groups and treated with vehicle, TRAIL (2.5 mg/kg, intraperitoneal), lead compound (TRT-0029 or TRT-0173, 30 mg/kg, intravenously), or lead compound (30 mg/kg, intravenously) combined with TRAIL (2.5 mg/kg, intraperitoneal) daily for 11 days (11 treatments in total). The tumor volumes were measured every 2 days for 11 days after treatment, and tumor volume was calculated according to the following equation: V (mm^3) = width^2 (mm^2) × length (mm)/2. Body weight and tumor mass were measured 11 days after treatment.

[9] = biological target: T1, MKK7-TIPRL interaction; test: ELISA of the MKK7-TIPRL interaction; assay type: binding; parameters: The full-length cDNAs of human TIPRL and MKK7 were provided by the Korea Human Gene Bank; His; made in house
Source text: The full-length cDNAs of human TIPRL and MKK7 were provided by the Korea Human Gene Bank (Korea Research Institute of Biosciences and Biotechnology, South Korea). TIPRL and MKK7 were subcloned into the pET21a vector (purchased from Novagen, San Diego, CA) and the pEBG vector containing a GST tag (kindly provided by Y. Liu, National Institute on Aging, National Institutes of Health) to construct the His-tagged and the GST-tagged plasmids, respectively. Purified TIPRL was conjugated with horseradish peroxidase (HRP). To screen chemical compounds using HTS, an ELISA system that detected the TIPRL and MKK7 interaction was constructed. Briefly, 96-well ELISA plates were coated with GST-MKK7 dissolved in PBS-T buffer (PBS containing 0.05% Tween-20 and 0.5% BSA), followed by the addition of 100 μl of TIPRL-HRP dissolved in PBS-T buffer. After 1 h, 100 μl of tetramethylbenzidine (TMB) solution was added to each well and the absorbance was read at 450 nm.

[10] = hit compounds from the in-house library, Supplementary Table 2, read-out: ELISA IC50

CC(=O)c1cc(-n2ncc3cc(NS(=O)(=O)c4ccccc4)ccc32)c(Cl)cc1Cl [TRT-0029]
AUC ([1]; iv, i.v. 5 mg/kg, read-out: AUC (i.v.)): 10000 ng·h/mL
AUC ([1]; po, p.o. 5 mg/kg, read-out: AUC (p.o.)): 1220 ng·h/mL
oral availability ([1]; 5 mg/kg i.v. and p.o.): 11%
decrease of HepG2 viability by co-treatment with TRAIL [2]: 36%
activity of caspase-3, co-treatment with TRAIL compared to compound alone or TRAIL alone ([3]; Huh7, 24 h): significantly increased
Caspase 3 activity Compound + TRAIL/Compound [3]: 2.20 ratio
reduction of cell viability of Huh7 cells by co-treatment with TRAIL, compared to TRAIL alone ([4]; 10 μM TRT-0029 or 20 μM TRT-0173 plus TRAIL, 24 h): ~90%
viability at 10 µM ([4]; Homo sapiens, Huh-7, Huh7, MTT, 10 µM, 24 hrs, with TRAIL, Supplementary Table 3, read-out: Cell viability assay Compound + TRAIL): 11%
effective working concentration ([4]; Huh7 cells, various doses with and without TRAIL (100 ng/ml), 24 h): 10 µM
viability at 24 h, 10 µM ([5]; Huh7, MTT, 10 µM, 24 hrs, Supplementary Table 3, read-out: Cell viability assay Compound only): 69%
interaction between MKK7 and TIPRL in GST pull-down assay, compared with untreated cells [6]: significantly decreased the interaction
apoptosis signals (cleaved caspase-3, PARP) by Western blotting [7]: effectively activated apoptosis signals
tumor volume / tumor growth at 11 days, compound + TRAIL compared with compound alone ([8]; compound 30 mg/kg i.v. plus TRAIL 2.5 mg/kg i.p. daily): significantly reduced
reduction of average tumor mass, lead compound + TRAIL ([8]; compound 30 mg/kg i.v. plus TRAIL 2.5 mg/kg i.p. daily for 11 days, versus vehicle control): 64.5%

COc1ccc(S(=O)(=O)Nc2ccc3c(cnn3-c3ccc(F)cc3)c2)cc1 [Compound 4]
IC50 [9, 10]: 89 nM
viability [5]: 86%

O=[N+]([O-])c1ccc(F)c(/C=N/Nc2ccc(F)cc2)c1 [Compound 7]
IC50 [9, 10]: 8900 nM
viability [5]: 89%

O=[N+]([O-])c1ccc2c(cnn2-c2ccc(F)cc2)c1 [Compound 8]
IC50 [9, 10]: 2800 nM
viability [5]: 69%

Nc1ccc2c(cnn2-c2ccc(F)cc2)c1 [Compound 9]
IC50 [9, 10]: 1000 nM
viability [5]: 90%

CC(=O)c1cc(-n2cc3cc(N)ccc3n2)c(Cl)cc1Cl [Compound 10]
IC50 [9, 10]: 3500 nM
viability [5]: 111%

CC(=O)c1cc(-n2ncc3cc(N)ccc32)c(Cl)cc1Cl [TRT-0002]
IC50 [9, 10]: 1000 nM
IC50 ([9]; newly synthesized TRT-0002, ELISA, read-out: IC50 to inhibit the MKK7-TIPRL interaction): 1400 nM
Caspase 3 activity Compound + TRAIL/Compound [3]: 1.80 ratio
viability at 40 µM ([4]; Homo sapiens, Huh-7, Huh7, MTT, 40 µM, 48 hrs, with TRAIL, Supplementary Table 3, read-out: Cell viability assay Compound + TRAIL): 29%
effect on cell viability / cell death of Huh7 cells in the presence of TRAIL [4]: significantly enhanced TRAIL-induced cell death
effect on cell viability / cell death of Huh7 cells in the presence of TRAIL ([4]; listed as 16): synergetic effect
viability at 48 h, 40 µM ([5]; Huh7, MTT, 40 µM, 48 hrs, Supplementary Table 3, read-out: Cell viability assay Compound only): 81%
viability [5]: 80%

O=Cc1cc([N+](=O)[O-])ccc1F [Compound 6]
IC50 [9, 10]: 2000 nM
viability [5]: 93%

Nc1ccc2[nH]ncc2c1 [Compound 5]
IC50 [9, 10]: 1400 nM
viability [5]: 81%

CC(=O)c1cc(-n2ncc3cc(NS(=O)(=O)c4ccccc4)ccc32)c(Cl)cc1Cl [Compound 3]
IC50 [9, 10]: 1700 nM
viability [5]: 42%

B1: TRAIL: human TRAIL protein, member of the TNF superfamily, used as co-treatment (protein, UniProt P50591 1-281, looked up)
Tumor necrosis factor ligand …: MAMMEVQGGPSLGQTCVLIVIFTVLLQSLCVAVTYVYFTNELKQMQDKYSKSGIACFLKEDDSYWDPNDEESMNSPCWQVKWQLRQLVRKMILRTSEETISTVQEKQQNISPLVRERGPQRVAAHITGTRGRSNTLSSPNSKNEKALGRKINSWESSRSGHSFLSNLHLRNGELVIHEKGFYYIYSQTYFRFQEEIKENTKNDKQMVQYIYKYTSYPDPILLMKSARNSCWSKDAEYGLYSIYQGGIFELKENDRIFVSVTNEHLIDMDHEASFFGAFLVG
apoptosis signals (cleaved caspase-3, PARP) by Western blotting [7]: did not activate caspase-3
anti-cancer effects of TRAIL alone in vivo ([8]; 5 and 2.5 mg/kg, data not shown): dose-dependent anti-cancer effects
reduction of average tumor mass, TRAIL alone ([8]; TRAIL 2.5 mg/kg i.p. daily for 11 days): 24.8%
